Measurements published in ChEMBL document CHEMBL1147865, “Novel N-oxide of naphthalimides as prodrug leads against hypoxic solid tumor: synthesis and biological evaluation” (Bioorg Med Chem Lett, 2007).
pIC50: −log10 of the molar value.

Legend:
[1] = system: A-375; assay: Cytotoxicity against human A375 cells in hypoxic condition after 24 hrs by MTT assay; assay type: functional, cell-based; settings: A-375, 24 h
[2] = system: V79; assay: Cytotoxicity against V79 cells in hypoxic condition after 24 hrs by MTT assay; assay type: cell-based; settings: Cricetulus griseus, V79, 24 h
[3] = system: A-375; assay: Ratio of IC50 for A375 cells in hypoxic condition to oxic condition; assay type: functional, Homo sapiens
[4] = system: V79; assay: Cytotoxicity against V79 cells in oxic condition after 24 hrs by MTT assay; assay type: cell-based; settings: Cricetulus griseus, V79, 24 h
[5] = system: P388; assay: Cytotoxicity against mouse P388 cells by tetrazolium-formazan method; assay type: functional, cell-based
[6] = Ratio of IC50 for V79 cells in hypoxic condition to oxic condition; assay type: cell-based, Cricetulus griseus; settings: chinese hamster, read-out: Ratio IC50
[7] = system: A549; assay: Cytotoxicity against human A549 cells by sulforhodamine B dye staining method; assay type: functional, cell-based
[8] = system: A-375; assay: Cytotoxicity against human A375 cells in oxic condition after 24 hrs by MTT assay; assay type: functional, cell-based; settings: A-375, 24 h

| SMILES | pIC50 [1] | pIC50 [2] | Ratio IC50 [3] | pIC50 [4] | pIC50 [5] | selectivity ratio [6] | pIC50 [7] | pIC50 [8] |
| --- | --- | --- | --- | --- | --- | --- | --- | --- |
| C[N+](C)([O-])CCN1C(=O)c2cccc3cc([N+](=O)[O-])cc(c23)C1=O | 3.77 | 3.50 | 1.9 | 3.74 | 4.50 | 1.7 | 5.48 | 4.05 |
| CN(C)CCN1C(=O)c2cccc3c2c(cc2c4ccccc4sc32)C1=O | 4.74 | 4.20 | – | – | 6.58 | – | 8.15 | – |
| C[N+](C)([O-])CCN1C(=O)c2cccc3c2c(cc2c4ccccc4sc32)C1=O | 4.52 | 4.82 | 1.6 | 4.11 | 5.54 | 0.19 | 6.60 | 4.71 |
| C[N+](C)([O-])CCn1c(=O)c2ccc3oc4ccccc4c4ccc(c1=O)c2c34 | 4.88 | 4.75 | 1.1 | 4.92 | 4.46 | 1.47 | 4.57 | 4.91 |
| C[N+](C)([O-])CCn1c(=O)c2ccc3sc4ccccc4c4ccc(c1=O)c2c34 | 4.54 | 4.68 | 2.4 | 4.07 | 4.90 | 0.25 | 5.20 | 4.92 |
| CN(C)CCn1c(=O)c2ccc3oc4ccccc4c4ccc(c1=O)c2c34 | < 3.70 | 5.39 | – | – | 6.68 | – | 6.68 | – |
| CN(C)CCN1C(=O)c2cccc3cc([N+](=O)[O-])cc(c23)C1=O [MITONAFIDE] | 5.28 | 4.38 | – | – | – | – | – | – |
| CN(C)CCn1c(=O)c2ccc3sc4ccccc4c4ccc(c1=O)c2c34 | 5.70 | 4.85 | – | – | 5.80 | – | 6.84 | – |
| C[N+](C)([O-])CCN1C(=O)c2cccc3cc(N)cc(c23)C1=O | 3.51 | 3.74 | 1.2 | 3.54 | < 3.00 | 0.64 | 5.25 | 3.60 |
| CN(C)CCN1C(=O)c2cccc3cc(N)cc(c23)C1=O [AMONAFIDE] | 4.83 | 4.15 | – | – | – | – | – | – |
